In patent publication US5770407A, “Process for preparing nucleotide inhibitors of glycosyltransferases” (The Scripps Research Institute, priority 1996, dated 1998):
“Also recorded” adds a separate entry of the source. Where two headings read alike, the source gives them in different places. Values belong to the compound of their own block, whether it stands above or below them.

Experiments:
[1] = tested on: β 1,4-galactosyltransferase; conditions: literature: Morrison, Ebner J. Biol. Chem. 1971; read-out: Km of GlcNAc (lit); cited from earlier work
[2] = tested on: β 1,4-galactosyltransferase; experiment: Inhibition study of β-1,4-galactosyltransferase (UDP-[3H]Gal transfer to N-acetylglucosamine); format: biochemical, bovine milk; conditions: for mode of inhibition of β-1,4-galactosyltransferase: HEPES 100 mM, pH 7.4
Experimental: All assays contained 10 mM of MnCl2, 2 mM of UDP-[^3 H]Gal, 5 μL of 0.125 mg/mL galactosyltransferase, 0.5-4 mM of N-acetylglucosamine, 0-0.05 mM of 1, and 100 mM of HEPES buffer (pH 7.4) in a total assay volume of 0.05 mL. Assay was performed at 25° C. Reactions were halted with the addition of 0.3 mL of distilled, de-ionized water after 10 min. The reaction mixtures were passed through a pipette column (2 cm) of Sepadex QAE A-25 with 1 mL of distilled, de-ionized water. The obtained fractions were collected in 10 mL of ScintiVerse I scintillation cocktail. A control reaction without enzyme was used to establish the background, non-enzymatic cleavage rate. A typical control reaction of 41754 cpm UDP-[^3 H]Gal would result in 890 cpm of non-enzymatic column flow through.

[3] = target: T1, α-1,3-fucosyltransferase V (Homo sapiens, UniProt Q11128); experiment: Inhibition of α-1,3-fucosyltransferase V (FucT V), GDP-Fuc varied at fixed inhibitor concentrations; format: biochemical; conditions: for mode of inhibition of FucT V: GDP-Fuc varied, constant LacNAc acceptor, listed as GDP-2F-Fuc
T1 construct: made in house
T1 sequence (Q11128 1-374): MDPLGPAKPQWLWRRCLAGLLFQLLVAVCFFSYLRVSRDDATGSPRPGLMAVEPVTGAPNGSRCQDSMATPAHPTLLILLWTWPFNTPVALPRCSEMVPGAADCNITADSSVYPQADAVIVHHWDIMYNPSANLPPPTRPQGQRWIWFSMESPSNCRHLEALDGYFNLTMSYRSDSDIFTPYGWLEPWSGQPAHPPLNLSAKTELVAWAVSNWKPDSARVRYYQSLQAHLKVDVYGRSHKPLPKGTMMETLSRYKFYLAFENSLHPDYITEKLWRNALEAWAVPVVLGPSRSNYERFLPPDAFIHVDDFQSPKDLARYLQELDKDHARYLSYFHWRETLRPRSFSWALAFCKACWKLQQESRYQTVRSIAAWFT
Experimental: GDP-Fuc concentration was varied ([…]) and the acceptor sugar, LacNAc-b-O--(CH2)5 CO2 CH3, was kept at twice its km level, 0.6 mM. (Inset) A replot of the slopes as a function of GDP-2F-Fuc concentration is presented as a graphical Ki determination (Ki =x axis intercept).
(§1) The interaction of GDP-2F-Fuc with FucT V was evaluated. The mode of inhibition of FucT V by GDP-2F-Fuc was evaluated by varying the GDP-Fuc concentrations at fixed GDP-2F-Fuc concentrations at a constant LacNAc-b-O--(CH2)5 CO2 CH3 concentration. […] Pre incubation of 0.010 mM GDP-2F-Fuc with the FucT V in the presence of LacNAc-b-O--(CH2)5 CO2 CH3 and MnCl2 was performed for 0-80 minutes. The reactions were initiated with GDP-Fuc and allowed to react for 30 minutes. The percent inhibition remained constant at 58% which is expected for reversible inhibition. If GDP-2F-Fuc was either an inactivator of a slow substrate, then the inhibition would either increase or decrease as a function of time.
Anhydrous pyridine was purchased from Aldrich and used without further purification. N-Acetyllactosamine, Dowex 1-X8, MES, pyruvate kinase, lactate dehydrogenase, PEP, GDP, NADH, guanosine 5'-monophospho-morpholidate 4-morpholine-N,N'-dicyclohexylcarboxamidine salt, GDP-Fuc, and cacodylic acid were purchased from Sigma. Guanosine 5'-diphospho-[U-^14 C]-b-L-fucose was purchased from Amersham Life Science. ScintiVerseI scintillation cocktail and MnCl2.4 H2 O were purchased from Fisher Scientific Company. Protein concentrations were determined with the Coomassie protein staining reagent with albumin standards as purchased from Pierce. The scintillation counter used was the Beckman LS 3801. Fluorescence was measured on a Hitachi F2000 Fluorescence Spectrophotometer. Human a-1,3-fucosyltransferase and LacNAc-b-O--(CH2)5 CO2 CH3 were prepared according to published procedures (Murray et al.(1996) Biochemistry 35, 11183-11195.).
GDP-Fuc concentration was varied ([…]) at fixed concentrations of GDP-2F-Fuc ([…]), and the acceptor sugar, LacNAc-b-O-(CH2)5 CO2 CH3, was kept at twice its Km level, 0.6 mM. Each assay contained 0.3 munit of FucT V and 10 mM MnCl2 in a 100 mM MES buffer (pH 6.0). Reactions were 30 minutes at room temperature.

FucT V = target: T2, FucT V (Homo sapiens, UniProt Q11128); experiment: Pre-incubation of GDP-2F-Fuc with FucT V (slow substrate / inactivator test); format: biochemical
T2 sequence (Q11128 1-374): T1 sequence (Q11128 1-374)
Experimental: as §1
A 0.350 mL solution that contained 10 mM MnCl2 , 2.1 munits FucT V, 0.30 mM LacNAc-b-O--(CH2)5 CO2 CH3, 0.010 mM GDP-2F-Fuc, and 100 mM MES (pH 6.0). This solution was subject to incubation at room temperature for various time periods (0, 3, 10, 20, 30, 60, 80 min). After the incubation time, a 0.050 mL aliquot was removed and GDP-[U-^14 C]-fucose was added to a final concentration of 0.050 mM to initiate the fucosyltransfer reaction. After a 30 minute reaction time period, the solution was passed through a Dowex 1 column and the amount of product determined.

[4] = tested on: β 1,4-galactosyltransferase; conditions: previous observation, Wong 1992; Srivastava 1993; cited from earlier work

- Vmax ([2]; acceptor GlcNAc, HEPES pH 7.4): 0.14 ± 0.01 µmol/min
- Km ([2]; β 1,4-galactosyltransferase, HEPES pH 7.4, read-out: Km of GlcNAc): 5.3 ± 0.5 mM
SMILES: CC(=O)N[C@H]1C(O)O[C@H](CO)[C@@H](O)[C@@H]1O (stereo partly shown) [GlcNAc, N-acetylglucosamine, reference compound]
- Km [1]: 6 mM

- mode of inhibition of β-1,4-galactosyltransferase [2]: competitive inhibitor
- mode of inhibition of β-1,4-galactosyltransferase ([2]; listed as UDP-2F-Gal, 1): potent competitive inhibitor
- mode of inhibition of β-1,4-galactosyltransferase ([2]; listed as UDP-2FGal): competitive inhibitor
- mode of inhibition of β-1,4-galactosyltransferase ([2]; listed as UDP-2FGal 1): competitive inhibition
- Ki ([2]; competitive inhibition, UDP-Gal, GlcNAc, Mn2+ 10 mM, HEPES 100 mM pH 7.4, 25° C.): 41 µM
SMILES: O=c1ccn([C@@H]2O[C@H](COP(=O)(O)OP(=O)(O)O[C@H]3O[C@H](CO)[C@H](O)[C@H](O)[C@H]3F)[C@@H](O)[C@H]2O)c(=O)[nH]1 [Compound 1, Uridine 5'-diphospho-2-deoxy-2-fluoro-α-D-galactose]

- mode of inhibition of FucT V [3]; 21: potent competitive inhibitor
- Ki ([3]; α-1,3-fucosyltransferase V, summary and description): 4.2 µM
- percent inhibition after pre-incubation (FucT V; 0.010 mM GDP-2F-Fuc, pre-incubation 0-80 minutes, 30 minutes reaction, remained constant): 58%
- effect of pre-incubation on the potency of inhibition (FucT V; incubation with FucT V and acceptor prior to GDP-Fuc): no effect
SMILES: C[C@@H]1O[C@H](OP(=O)(O)OP(=O)(O)OC[C@H]2O[C@@H](n3cnc4c(=O)[nH]c(N)nc43)[C@H](O)[C@@H]2O)[C@@H](F)[C@H](O)[C@@H]1O [Compound 21, Guanosine 5'-diphospho-2-deoxy-2-fluoro-β-L-fucose]
- mode of inhibition of FucT V [3]: potent competitive inhibitor; also recorded: competitive inhibition pattern
- relative potency as FucT V inhibitor ([3]; compared with inhibitors known to date): most potent inhibitor of this enzyme to date
- slow substrate or inactivator behaviour (FucT V; pre-incubation with FucT V, acceptor and MnCl2 before GDP-Fuc, listed as GDP-2F-Fuc): not a slow substrate or an inactivator; also recorded: neither an inactivator nor a slow substrate

SMILES: O=c1ccn([C@@H]2O[C@H](COP(=O)(O)OP(=O)(O)O[C@@H]3C[C@@H](O)[C@@H](O)[C@@H](CO)O3)[C@@H](O)[C@H]2O)c(=O)[nH]1 [2-deoxy derivative]
- substrate quality for the transferase [4]: good substrate
